From patent US8987314B2, “Amide, urea or sulfone amide linked benzothiazole inhibitors of endothelial lipase” (Bristol-Myers Squibb Company, priority 2012, dated 2015)
Read-outs that look alike come from different tables or passages of the source.

Tests used:
Endothelial lipase (EL) = Endothelial lipase (EL) (Homo sapiens (Human), UniProt Q9Y5X9); assay: EL assay: endothelial lipase activity with fluorescent substrate A10070 in DMPG vesicles; type: biochemical
Summary of the method: (§1)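 Substrate A10070 sits in sonicated DMPG vesicles at 0.11 mole fraction. Lipase and compound preincubated 30 min, 37° C, in HEPES pH 8.0 buffer with CaCl2.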

hepatic lipase (HL) = hepatic lipase (HL) (Homo sapiens (Human), UniProt P11150); assay: HL assay: hepatic lipase activity with fluorescent substrate A10070 in DMPG vesicles; type: biochemical
Summary of the method: as §1

[1] = EL from conditioned media of HT-1080 cells, 30 min incubation with compound at 37° C., A10070/DMPG vesicles
[2] = HL partially purified from conditioned media of COS cells, 30 min incubation with compound at 37° C., A10070/DMPG vesicles

Sequence of Endothelial lipase (EL) (Q9Y5X9 21-500): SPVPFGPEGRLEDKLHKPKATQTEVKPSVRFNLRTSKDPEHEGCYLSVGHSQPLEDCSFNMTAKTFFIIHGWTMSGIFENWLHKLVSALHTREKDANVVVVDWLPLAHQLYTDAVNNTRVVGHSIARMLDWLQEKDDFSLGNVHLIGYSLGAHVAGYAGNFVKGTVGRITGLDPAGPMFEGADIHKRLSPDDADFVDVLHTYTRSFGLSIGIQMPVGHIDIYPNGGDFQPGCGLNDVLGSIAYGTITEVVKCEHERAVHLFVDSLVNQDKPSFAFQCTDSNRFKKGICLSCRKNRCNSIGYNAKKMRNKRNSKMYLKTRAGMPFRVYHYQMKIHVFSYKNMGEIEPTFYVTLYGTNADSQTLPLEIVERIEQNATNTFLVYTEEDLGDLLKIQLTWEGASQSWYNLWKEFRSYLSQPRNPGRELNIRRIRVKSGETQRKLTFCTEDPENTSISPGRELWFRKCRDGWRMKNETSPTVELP
Sequence of hepatic lipase (HL) (P11150 23-499, species assumed): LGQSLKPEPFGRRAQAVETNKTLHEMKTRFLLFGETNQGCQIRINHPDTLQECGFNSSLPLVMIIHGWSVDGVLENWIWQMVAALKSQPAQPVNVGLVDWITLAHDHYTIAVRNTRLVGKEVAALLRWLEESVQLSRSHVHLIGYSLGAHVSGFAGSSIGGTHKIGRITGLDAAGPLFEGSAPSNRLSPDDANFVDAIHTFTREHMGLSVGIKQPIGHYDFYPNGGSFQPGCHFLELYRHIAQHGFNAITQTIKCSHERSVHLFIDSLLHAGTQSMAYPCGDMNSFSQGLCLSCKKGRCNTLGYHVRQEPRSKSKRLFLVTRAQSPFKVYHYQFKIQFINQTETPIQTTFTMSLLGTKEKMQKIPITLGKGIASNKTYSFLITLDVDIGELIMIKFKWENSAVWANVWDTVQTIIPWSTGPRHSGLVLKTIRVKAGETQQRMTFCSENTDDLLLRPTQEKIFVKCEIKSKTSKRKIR

| SMILES | IC50 (Endothelial lipase (EL)) | IC50 (hepatic lipase (HL)) | IC50 (Endothelial lipase (EL); [1]) | IC50 (hepatic lipase (HL); [2]) |
| --- | --- | --- | --- | --- |
| CS(=O)(=O)C(C(=O)NCCS(N)(=O)=O)c1nc2cc(-c3ccnc(F)c3)ccc2s1 (stereo not drawn) [Example B95, 2-[5-(2-fluoro-4-pyridinyl)-1,3-benzothiazol-2-yl]-2-(methylsulfonyl)-N-(2-sulfamoylethyl)acetamide] | < 0.01 µM | 0.07 µM |  |  |
| Cc1nnc(CNC(=O)C(c2nc3cc(C)c(-c4ccc(C(=O)N5CCOCC5)cc4)cc3s2)S(=O)(=O)Cc2ccccc2)o1 (stereo not drawn) [Example B96, 2-(benzylsulfonyl)-2-(5-methyl-6-(4-(4-morpholinylcarbonyl)phen-yl)-1,3-benzothiazol-2-yl)-N-((5-methyl-1,3,4-oxadiazol-2-yl)methyl)a-cetamide] | 0.027 µM | 0.251 µM |  |  |
| COc1ccc(-c2cc3sc(C(C(=O)NCc4nnc(C)o4)S(=O)(=O)Cc4ccccc4)nc3cc2C)cn1 (stereo not drawn) [Example B97, 2-(benzylsulfonyl)-2-(6-(6-methoxy-3-pyridinyl)-5-methyl-1,3-benzothiazol-2-yl)-N-((5-methyl-1,3,4-oxadiazol-2-yl)methyl)a-cetamide] | 0.024 µM | 0.057 µM |  |  |
| CS(=O)(=O)C(C(=O)NCCS(N)(=O)=O)c1nc2ccc(-c3cnn(C4CCNCC4)c3)cc2s1 (stereo not drawn) [Example B98, 2-(Methylsulfonyl)-2-(6-(1-(4-piperidinyl)-1H-pyrazol-4-yl)-1,3-benzothiazol-2-yl)-N-(2-sulfamoylethyl)acetamide] |  |  | < 0.01 µM | 0.464 µM |
| COCCNC(=O)c1ccc(-c2ccc3nc(C(C(=O)NCCS(N)(=O)=O)S(=O)(=O)Cc4ccccc4)sc3c2)cc1 (stereo not drawn) [Example B99, 4-(2-(1-(Benzylsulfonyl)-2-oxo-2-((2-sulfamoylethyl)amino)ethyl)-1,3-benzothiazol-6-yl)-N-(2-methoxyethyl)benzamide] |  |  | < 0.01 µM | 0.055 µM |
| COCCS(=O)(=O)C(C(=O)NCCS(N)(=O)=O)c1nc2ccc(-c3ccc(C(=O)N4CCOCC4)cc3)cc2s1 (stereo not drawn) [Example B100, 2-((2-methoxyethyl)sulfonyl)-2-(6-(4-(4-morpholinyl-carbonyl)phenyl)-1,3-benzothiazol-2-yl)-N-(2-sulfamoylethyl)acetamide] | < 0.01 µM | 1.24 µM |  |  |
| CS(=O)(=O)C(C(=O)NCCS(N)(=O)=O)c1nc2ccc(-c3ccc(C(=O)N4CCOCC4)cc3)cc2s1 (stereo not drawn) [Example B101, 2-(methylsulfonyl)-2-(6-(4-(4-morpholinylcarbonyl)phen-yl)-1,3-benzothiazol-2-yl)-N-(2-sulfamoylethyl)a-cetamide] | < 0.01 µM | 0.063 µM |  |  |
| NS(=O)(=O)CCNC(=O)C(c1nc2ccc(-c3ccc(C(=O)N4CCOCC4)cc3)cc2s1)S(=O)(=O)Cc1ccccc1 (stereo not drawn) [Example B102, 2-(benzylsulfonyl)-2-(6-(4-(4-morpholinylcarbonyl)phen-yl)-1,3-benzothiazol-2-yl)-N-(2-sulfamoylethyl)a-cetamide] | 0.018 µM | 5.29 µM |  |  |
| COCCS(=O)(=O)C(C(=O)NCCS(N)(=O)=O)c1nc2ccc(-c3ccccc3)cc2s1 (stereo not drawn) [Example B103, 2-((2-methoxyethyl)sul-fonyl)-2-(6-phenyl-1,3-benzothiazol-2-yl)-N-(2-sulfamoylethyl)acetemide] | < 0.01 µM | < 0.01 µM |  |  |
| NS(=O)(=O)CCNC(=O)C(c1nc2ccc(-c3ccccc3)cc2s1)S(=O)(=O)Cc1ccccc1 (stereo not drawn) [Example B104, 2-(benzylsulfonyl)-2-(6-phenyl-1,3-benzothiazol-2-yl)-N-(2-sulfamoylethyl)a-cetamide] | < 0.01 µM | < 0.01 µM |  |  |
| CCS(=O)(=O)C(C(=O)NCCS(N)(=O)=O)c1nc2ccc(-c3ccccc3)cc2s1 (stereo not drawn) [Example B105, 2-(ethylsulfonyl)-2-(6-phenyl-1,3-benzothiazol-2-yl)-N-(2-sulfamoylethyl)a-cetamide] | < 0.01 µM | < 0.01 µM |  |  |
| CC(C)CS(=O)(=O)C(C(=O)NCCS(N)(=O)=O)c1nc2ccc(-c3ccccc3)cc2s1 (stereo not drawn) [Example B106, 2-(isobutylsulfonyl)-2-(6-phenyl-1,3-benzothiazol-2-yl)-N-(2-sulfamoylethyl)a-cetamide] | < 0.01 µM | < 0.01 µM |  |  |
| CCCS(=O)(=O)C(C(=O)NCCS(N)(=O)=O)c1nc2ccc(-c3ccccc3)cc2s1 (stereo not drawn) [Example B107, 2-(6-phenyl-1,3-benzothiazol-2-yl)-2-(propylsulfonyl)-N-(2-sulfamoylethyl)acetamide] | < 0.01 µM | < 0.01 µM |  |  |
| NS(=O)(=O)CCNC(=O)C(c1nc2ccc(-c3ccc(C(=O)N4CCOCC4)cc3)cc2s1)S(=O)(=O)CCC(F)(F)F (stereo not drawn) [Example B108, 2-(6-(4-(4-morpholinyl-carbonyl)phenyl)-1,3-benzothiazol-2-yl)-N-(2-sulfamoylethyl)-2-((3,3,3-trifluoropropyl)sul-fonyl)acetamide] | < 0.01 µM | 0.023 µM |  |  |
| CC(C)CS(=O)(=O)C(C(=O)NCCS(N)(=O)=O)c1nc2ccc(-c3ccc(C(=O)N4CCOCC4)cc3)cc2s1 (stereo not drawn) [Example B109, 2-(isobutylsulfonyl)-2-(6-(4-(4-morpholinyl-carbonyl)phenyl)-1,3-benzothiazol-2-yl)-N-(2-sulfamoylethyl)acetamide] | < 0.01 µM | 0.191 µM |  |  |
| COCCNC(=O)c1ccc(-c2ccc3nc(C(C(=O)NCCS(N)(=O)=O)S(=O)(=O)CCC(F)(F)F)sc3c2)cc1 (stereo not drawn) [Example B110, N-(2-methoxyethyl)-4-(2-(2-oxo-2-((2-sulfamoyl-ethyl)amino)-1-((3,3,3-trifluoropropyl)sulfonyl)eth-yl)-1,3-benzothiazol-6-yl)benzamide] | < 0.01 µM | 0.18 µM |  |  |
| NS(=O)(=O)CCNC(=O)C(c1nc2ccc(-c3ccc(C(=O)N4CCOCC4)cc3)cc2s1)S(=O)(=O)CC1CC1 (stereo not drawn) [Example B111, 2-((cyclopropylmethyl)sul-fonyl)-2-(6-(4-(4-morpholinylcarbonyl)phen-yl)-1,3-benzothiazol-2-yl)-N-(2-sulfamoylethyl)a-cetamide] | < 0.01 µM | 1.46 µM |  |  |
| COCCNC(=O)c1ccc(-c2ccc3nc(C(C(=O)NCCS(N)(=O)=O)S(=O)(=O)Cc4ccc(F)cc4)sc3c2)cc1 (stereo not drawn) [Example B112, 4-(2-(1-((4-fluorobenzyl)sul-fonyl)-2-oxo-2-((2-sulfamoylethyl)amino)eth-yl)-1,3-benzothiazol-6-yl)-N-(2-methoxyethyl)ben-zamide] | < 0.01 µM | 8.33 µM |  |  |
| COCCNC(=O)c1ccc(-c2ccc3nc(C(C(=O)NCCS(N)(=O)=O)S(=O)(=O)Cc4ccc(OC(F)(F)F)cc4)sc3c2)cc1 (stereo not drawn) [Example B113, N-(2-methoxyethyl)-4-(2-(2-oxo-2-((2-sulfamoyl-ethyl)amino)-1-((4-(trifluoromethoxy)ben-zyl)sulfonyl)ethyl)-1,3-benzothiazol-6-yl)ben-zamide] | 0.0007 µM | 0.0482 µM |  |  |
| COCCNC(=O)c1ccc(-c2ccc3nc(C(C(=O)NCCS(N)(=O)=O)S(=O)(=O)Cc4cccc(C#N)c4)sc3c2)cc1 (stereo not drawn) [Example B115] | 0.0012 µM | 0.107 µM |  |  |
| COCCNC(=O)c1ccc(-c2ccc3nc(C(C(=O)NCCS(N)(=O)=O)S(=O)(=O)Cc4ccc(C(F)(F)F)cc4)sc3c2)cc1 (stereo not drawn) [Example B116, N-(2-methoxyethyl)-4-(2-(2-oxo-2-((2-sulfamoyl-ethyl)amino)-1-((4-(trifluoromethyl)benzyl)sul-fonyl)ethyl)-1,3-benzothiazol-6-yl)ben-zamide] | < 0.01 µM | 0.182 µM |  |  |
